Our source for the Ki and IC50 values is patent publication US9676720B2, “Substituted biaryl compound” (UBE INDUSTRIES, LTD., priority 2013, dated 2017).

Where two headings read alike, the source gives them in different places.

One assay concerns the target human EP2 receptor (Homo sapiens (Human), UniProt P43116). Briefly: Measurement of EP2 receptor binding action. The note with it: membrane fraction of HEK293 cells expressing human EP2 receptor; [3H]prostaglandin E2 10 nM. As for the experimental part: The membrane fraction was recovered on glass fiber filter paper (GF/B, manufactured by Whatman) using a cell harvester (M30R, manufactured by Brandel), and after washing with a buffer solution (10 mM MES-KOH (pH 6.0), 10 mM MgCl2), radioactivity was measured with a liquid scintillation analyzer (2000CA, manufactured by Packard). […] Ki=IC50/(1+([^3H]prostaglandin E2 concentration/Kd))
Note that the dissociation constant (Kd value) was calculated by Scatchard analysis.

Assay [1] deals with Pulmonary fibroblasts derived from a human fetus (IMR90). Description: Test for inhibition of pulmonary fibroblast proliferation (BrdU incorporation). The conditions noted are these: IMR90, FGF 10 ng/mL, BrdU incorporation, read-out: IC50 value (nM) of inhibition effect of pulmonary fibroblast proliferation. The assay is classed as cell-based. As for the experimental part:
Measurement of inhibition effect of pulmonary fibroblast proliferation was performed by modifying the method of Huang et al. (American Journal of Respiratory Cell and Molecular Biology, 39, 482 (2008)). Pulmonary fibroblasts derived from a human fetus (IMR90, purchased from American Type Culture Collection) were cultured in DMEM medium containing 10% FBS and seeded at 1×10^4 cells/well of a 96-well plate. After culturing for approximately 8 hours in a carbon dioxide incubator, the medium was replaced with FBS-free DMEM medium and the culturing was performed for one night. On the following day, the medium was replaced with a new FBS-free DMEM medium, and then a test compound dissolved in dimethyl sulfoxide (final concentration: 0.1%) and FGF (final concentration: 10 ng/mL, manufactured by Wako Pure Chemical Industries, Ltd.) were added thereto and allowed to stand undisturbed in a carbon dioxide incubator. After 22 hours, a BrdU labeling solution (manufactured by Roche) was added and culturing was performed for another 2 hours. After the completion of the culturing, amount of BrdU incorporation was measured using Cell Proliferation ELISA BrdU (colorimetric) (manufactured by Roche). The concentration of the test compound required to inhibit BrdU incorporation to 50% (IC50 value) was calculated by non-linear regression of the test compound concentration and the amount of BrdU incorporation using EXSAS (Ver. 8.0.0, manufactured by Arm Systex).

human EP2 receptor, sequence (P43116 whole entry): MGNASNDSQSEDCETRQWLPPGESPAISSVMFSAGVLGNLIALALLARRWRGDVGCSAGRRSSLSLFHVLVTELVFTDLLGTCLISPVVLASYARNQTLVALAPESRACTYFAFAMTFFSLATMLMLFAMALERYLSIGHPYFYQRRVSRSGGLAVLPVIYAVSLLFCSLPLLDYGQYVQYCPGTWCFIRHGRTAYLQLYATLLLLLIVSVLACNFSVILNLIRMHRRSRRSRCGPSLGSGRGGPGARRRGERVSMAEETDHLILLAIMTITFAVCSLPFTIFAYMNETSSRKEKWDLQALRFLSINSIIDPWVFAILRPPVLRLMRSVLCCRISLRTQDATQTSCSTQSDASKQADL

The molecule `CCOc1cc(-c2ccc(CN(Cc3cccc(NCC(=O)O)n3)S(=O)(=O)c3ccccn3)cc2)ccn1` [Comparative example 15, (6-{[4-(2-Ethoxypyridin-4-yl)benzyl](pyridin-2-ylsulfonyl)aminomethyl}-pyridin-2-ylamino)acetic acid] came in with a Ki on human EP2 receptor of 3.2 nM. In addition, the IC50 in assay [1] (Homo sapiens, IMR-90) was greater than 1 nM.
Consider `CC#Cc1cccc(-c2ccc(CN(Cc3cccc(NCC(=O)O)n3)S(=O)(=O)c3ccsc3)cc2)c1` [Example 18], for which the Ki on human EP2 receptor amounted to 0.99 nM. In addition, the IC50 in assay [1] is 0.0042 nM.
